Results from patent US20260158011A1 (Achieve Life Sciences, Inc., priority 2023, published 2026).
Like-named read-outs stand apart in the source and are kept apart here.

What was measured:
[1] = tested on: adults who smoked 10 cigarettes per day
Experimental: Safety was assessed by measurement of vital signs and participant self-report of adverse events and concomitant medications on day 2 and at weekly visits during treatment from week 1 to 12 and through an additional 12-week follow-up. Hematology and chemistry laboratory tests were done at weeks 1, 6, and 12. Electrocardiograms were done at weeks 6 and 12. Clinically significant adverse events or abnormalities were followed until resolution or end of study.
The study had two primary endpoints. […] Study success was defined as either primary endpoint meeting statistical criterion. The secondary outcome measures were verified continuous cigarette abstinence to week 24 (weeks 3 to 24 for Arms B vs. A; weeks 9 to 24 for Arms C vs. A). A third secondary outcome measure compared the risk of relapse to smoking between weeks 6 and 24 among participants assigned to cytisinicline who achieved abstinence by week 6; these individuals were either switched to placebo at week 6 (Arm B) or continued cytisinicline to week 12 (Arm C). Other pre-specified endpoints included comparing the difference between arms in verified 7-day point-prevalence abstinence at each visit from week 2 through week 24 and assessing for evidence of effect modification for subsets defined by baseline attributes. To assess cigarette craving between groups, the Brief Questionnaire of Smoking Urges (QSU-brief) was administered at clinic visits on Day 0 and at Weeks 1 to 6 (4, 5). Safety outcomes included the incidence of treatment-emergent serious and non-serious adverse events during treatment with cytisinicline or placebo and clinically-significant changes in vital signs, laboratory tests or electrocardiograms.
Analyses for the binary primary and secondary outcomes were based on exact analyses 2×2 tables stratified by clinical site. Missed assessments of primary and secondary endpoints were imputed as non-success, thereby enabling analyses following the intent-to-treat principle. The Hochberg procedure was used to control for multiplicity (6). A target sample of 750 participants (n=250 per arm) was computed and verified using simulations to provide 96% power for specifications of an overall one-sided 0.025 type I error probability and success probabilities of 7% for placebo and 19% for cytisinicline. Sensitivity analyses included assessments of effect modification related to subsets defined by baseline attributes using logistic and cumulative logit models. Longitudinal analyses used Mixed Model for Repeated Measures methodology (7). Safety analyses included all randomized participants who received at least one dose of study drug. Analyses were conducted by BB.

[2] = tested on: adults smoking 10+ cigarettes daily; conditions: for Serious AEs: ORCA-1, pooled cytisinicline arms (n = 203)
From the text: Table 13 summarizes the treatment emergent adverse events (TEAEs).

[3] = molecular target: neuronal alpha4, beta2 (α4β2) receptors (Homo sapiens, UniProt P17787+P43681); conditions: background studies; cited from earlier work
[4] = Arm B Cytisinicline 6 weeks + placebo 6 weeks, N = 269
[5] = Arm B Cytisinicline 6 weeks + placebo 6 weeks, of 459 events
[6] = Arm C Cytisinicline 12 weeks, N = 270
[7] = Arm C Cytisinicline 12 weeks, of 494 events
[8] = 1.5 mg downward titration (n = 51)
[9] = 3.0 mg downward titration (n = 50)
[10] = pooled cytisinicline arms (n = 203)

Sequence of neuronal alpha4, beta2 (α4β2) receptors (P43681 29-627 limits assumed): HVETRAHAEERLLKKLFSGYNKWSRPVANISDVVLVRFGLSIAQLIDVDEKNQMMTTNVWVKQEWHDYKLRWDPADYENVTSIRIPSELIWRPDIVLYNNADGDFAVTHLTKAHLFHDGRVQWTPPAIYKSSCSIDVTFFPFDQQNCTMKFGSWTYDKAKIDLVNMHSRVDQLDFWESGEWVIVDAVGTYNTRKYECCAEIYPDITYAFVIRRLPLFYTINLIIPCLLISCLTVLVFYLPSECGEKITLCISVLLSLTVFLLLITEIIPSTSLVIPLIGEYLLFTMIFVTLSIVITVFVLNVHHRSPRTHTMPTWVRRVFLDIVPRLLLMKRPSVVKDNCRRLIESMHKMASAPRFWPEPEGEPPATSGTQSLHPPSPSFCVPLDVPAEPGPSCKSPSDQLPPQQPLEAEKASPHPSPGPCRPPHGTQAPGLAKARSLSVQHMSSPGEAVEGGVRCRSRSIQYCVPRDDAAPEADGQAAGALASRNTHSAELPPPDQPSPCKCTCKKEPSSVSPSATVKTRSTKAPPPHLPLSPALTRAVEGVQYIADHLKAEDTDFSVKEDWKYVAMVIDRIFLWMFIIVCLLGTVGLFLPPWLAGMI
Sequence of neuronal alpha4, beta2 (α4β2) receptors (P17787 26-502): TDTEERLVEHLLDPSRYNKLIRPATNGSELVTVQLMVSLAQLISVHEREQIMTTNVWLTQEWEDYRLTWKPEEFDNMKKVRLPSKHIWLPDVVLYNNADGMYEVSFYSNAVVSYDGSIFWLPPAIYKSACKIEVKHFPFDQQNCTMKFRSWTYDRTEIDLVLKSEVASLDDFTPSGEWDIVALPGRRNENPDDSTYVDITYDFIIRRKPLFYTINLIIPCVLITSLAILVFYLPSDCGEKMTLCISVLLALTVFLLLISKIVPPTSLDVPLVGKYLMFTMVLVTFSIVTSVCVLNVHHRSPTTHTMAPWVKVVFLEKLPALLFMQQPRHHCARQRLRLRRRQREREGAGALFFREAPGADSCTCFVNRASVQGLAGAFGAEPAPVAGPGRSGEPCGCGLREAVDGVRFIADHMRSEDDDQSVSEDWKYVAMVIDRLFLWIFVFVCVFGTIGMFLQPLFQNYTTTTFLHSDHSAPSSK

O=c1cccc2n1C[C@@H]1CNC[C@H]2C1 [cytisine, (−)-Cytisine]
Treatment-emergent adverse events reported ([1]; 6-week cytisinicline arm): 172 (63.9%) participants (%)
Treatment-emergent adverse events reported ([1]; 12-week cytisinicline arm): 184 (68.2%) participants (%)
OR for serious adverse events, cytisinicline versus placebo ([1]; 539 cytisinicline vs 270 placebo participants): 3.08
Study drug discontinuation due to adverse events ([1]; Arm B): 2.6%
Number of treatment emergent adverse events [1, 4]: 459
Participants with Abnormal dreams (treatment-emergent adverse event), % [1, 4]: 8.2%
Participants with Anxiety (treatment-emergent adverse event), % [1, 4]: 2.6%
Participants with Constipation (treatment-emergent adverse event), % [1, 4]: 5.9%
Participants with Diarrhea (treatment-emergent adverse event), % [1, 4]: 3.7%
Participants with Headache (treatment-emergent adverse event), % [1, 4]: 6.7%
Participants with Insomnia (treatment-emergent adverse event), % [1, 4]: 8.6%
Participants with Nausea (treatment-emergent adverse event), % [1, 4]: 5.9%
Participants with any serious adverse event, % [1, 4]: 3.7%
Participants with any treatment emergent adverse event, % [1, 4]: 63.9%
Participants with any treatment-related serious adverse event, % [1, 4]: 0%
Treatment emergent adverse events, Mild, % [1, 5]: 63.2%
Treatment emergent adverse events, Moderate, % [1, 5]: 32.2%
Treatment emergent adverse events, Severe, % [1, 5]: 4.6%
Study drug discontinuation due to adverse events ([1]; Arm C): 3.7%
Number of treatment emergent adverse events [1, 6]: 494
Participants with Abnormal dreams (treatment-emergent adverse event), % [1, 6]: 7.8%
Participants with Anxiety (treatment-emergent adverse event), % [1, 6]: 5.6%
Participants with Constipation (treatment-emergent adverse event), % [1, 6]: 4.8%
Participants with Diarrhea (treatment-emergent adverse event), % [1, 6]: 4.4%
Participants with Headache (treatment-emergent adverse event), % [1, 6]: 7.8%
Participants with Insomnia (treatment-emergent adverse event), % [1, 6]: 9.6%
Participants with Nausea (treatment-emergent adverse event), % [1, 6]: 5.6%
Participants with any serious adverse event, % [1, 6]: 3.0%
Participants with any treatment emergent adverse event, % [1, 6]: 68.2%
Participants with any treatment-related serious adverse event, % [1, 6]: 0%
Treatment emergent adverse events, Mild, % [1, 7]: 61.3%
Treatment emergent adverse events, Moderate, % [1, 7]: 36.0%
Treatment emergent adverse events, Severe, % [1, 7]: 2.6%
Treatment-related SAEs ([1]; all arms): No SAE was judged to be treatment-related
Serious adverse events (SAEs) ([1]; of 539 participants on cytisinicline): 18 (3.3%) participants (%)
Study drug discontinuation due to adverse events ([1]; of 539 participants receiving cytisinicline (Arms B and C)): 17 (3.2%) participants (%)
TEAE: Abnormal dreams ([2]; 1.5 mg TID (n = 52)): 4 (8%) n (%)
TEAE: At least 1 AE ([2]; 1.5 mg TID (n = 52)): 20 (39%) n (%)
TEAE: Constipation ([2]; 1.5 mg TID (n = 52)): 1 (2%) n (%)
TEAE: Fatigue ([2]; 1.5 mg TID (n = 52)): 3 (6%) n (%)
TEAE: Headache ([2]; 1.5 mg TID (n = 52)): 6 (12%) n (%)
TEAE: Insomnia ([2]; 1.5 mg TID (n = 52)): 4 (8%) n (%)
TEAE: Nausea ([2]; 1.5 mg TID (n = 52)): 1 (2%) n (%)
TEAE: URTI ([2]; 1.5 mg TID (n = 52)): 5 (10%) n (%)
TEAE: Abnormal dreams [2, 8]: 4 (8%) n (%)
TEAE: At least 1 AE [2, 8]: 29 (57%) n (%)
TEAE: Fatigue [2, 8]: 1 (2%) n (%)
TEAE: Headache [2, 8]: 1 (2%) n (%)
TEAE: Insomnia [2, 8]: 3 (6%) n (%)
TEAE: Nausea [2, 8]: 5 (10%) n (%)
TEAE: URTI [2, 8]: 3 (6%) n (%)
TEAE: Abnormal dreams ([2]; 3.0 mg TID (n = 50)): 3 (6%) n (%)
TEAE: At least 1 AE ([2]; 3.0 mg TID (n = 50)): 21 (42%) n (%)
TEAE: Constipation ([2]; 3.0 mg TID (n = 50)): 3 (6%) n (%)
TEAE: Fatigue ([2]; 3.0 mg TID (n = 50)): 1 (2%) n (%)
TEAE: Headache ([2]; 3.0 mg TID (n = 50)): 2 (4%) n (%)
TEAE: Insomnia ([2]; 3.0 mg TID (n = 50)): 3 (6%) n (%)
TEAE: Nausea ([2]; 3.0 mg TID (n = 50)): 3 (6%) n (%)
TEAE: URTI ([2]; 3.0 mg TID (n = 50)): 3 (6%) n (%)
TEAE: Abnormal dreams [2, 9]: 7 (14%) n (%)
TEAE: At least 1 AE [2, 9]: 23 (46%) n (%)
TEAE: Fatigue [2, 9]: 2 (4%) n (%)
TEAE: Headache [2, 9]: 1 (2%) n (%)
TEAE: Insomnia [2, 9]: 4 (8%) n (%)
TEAE: Nausea [2, 9]: 3 (6%) n (%)
TEAE: URTI [2, 9]: 2 (4%) n (%)
Serious AEs [2]: no serious or severe adverse events
Serious AEs ([2]; listed as Cytisinicline): 0
TEAE: Abnormal dreams [2, 10]: 18 (9%) n (%)
TEAE: At least 1 AE [2, 10]: 93 (46%) n (%)
TEAE: Constipation [2, 10]: 4 (2%) n (%)
TEAE: Fatigue [2, 10]: 7 (3%) n (%)
TEAE: Headache [2, 10]: 10 (5%) n (%)
TEAE: Insomnia [2, 10]: 14 (7%) n (%)
TEAE: Nausea [2, 10]: 12 (6%) n (%)
TEAE: URTI [2, 10]: 13 (6%) n (%)
Binding to α4β2 receptors [3]: bind strongly and preferentially
